Where two headings read alike, the source gives them in different places.
Legend:
μ opioid receptor = target: T1, μ opioid receptor (Cavia porcellus, UniProt A0ACM8Q262); test: Bonding (binding) assay, guinea pig brain homogenate, 3H-DAGO (hot) / naloxone (cold); conditions: for Ki: guinea pig brain homogenate; for Ki ratio κ/μ: selectivity ratio
T1 construct: 3H-DAGO (DAMGO) radioligand, cold naloxone
Description: (§1) In the test for bonding, the homogenate of the brain of a guinea pig was diluted with Tris buffer in a ratio calculated to give to the produced solution a protein content of 0.7 mg per prot/tube was used as incorporated in the reaction solution. With regard to ligands for binding assay, 3H-DAGO (μ), DPDPE (δ), and EKC (κ) were used for hot samples and naloxone (μ), DADLE (δ), and naloxone (κ) for cold samples.

δ opioid receptor [1] = target: T2, δ opioid receptor (Cavia porcellus, UniProt A0A286XTF2); test: Bonding (binding) assay, guinea pig brain homogenate, DPDPE (hot) / DADLE (cold)
T2 construct: the homogenate of the brain of a guinea pig; from tissue; host or cells: guinea pig brain homogenate
Description: as §1

δ opioid receptor [2] = test: as above; conditions: μ/δ
Description: as §1

κ opioid receptor = target: T3, κ opioid receptor (Cavia porcellus, UniProt P41144); test: Bonding (binding) assay, guinea pig brain homogenate, EKC (hot) / naloxone (cold)
T3 construct: the homogenate of the brain of a guinea pig; from tissue; host or cells: guinea pig brain homogenate
Description: as §1

δ-receptor = target: T4, δ-receptor (Mus musculus, UniProt P32300); test: Antagonism to DPDPE in Mouse Vas Deferens (MVD)
T4 construct: from tissue; host or cells: mouse vas deferens

[3] = test system: Guinea Pig Ileal Longitudinal Muscle; test: Agonist activity in Guinea Pig Ileal Longitudinal Muscle (GPI); conditions: guinea pig ileum
Description: (§2) The test of the compounds of this invention for agonist and antagonist activities was carried out in according to the method proposed by Takemori et al. (Takemori, A, E. et al.: Eur. J. Pharmacal., 1982, 85, 163) using Guinea Pig Ileal Longitudinal Muscle Mouse Vas Deferens (MVD).

[4] = test system: Guinea Pig Ileal Longitudinal Muscle; test: GPI, shift of the compound's effect by naloxone or nor-BNI; parameters: GPI nor-BN1 Ke: unit not given here
Description: as §2

mouse T cells = test: Inhibiting proliferation of mouse T cells by Con-A stimulation ([3H]thymidine uptake, spleen cells); type: cell-based
Description: Now, the immunosuppressive activity of the compound 19 which is representative of the compounds of the present invention will be shown. Activity in inhibiting proliferation of mouse T cells by Con-A stimulation
A monocellular suspension was prepared by sterilely removing the spleen from a mouse and passing the spleen through a mesh. This suspension was adjusted to a concentration of 5×10^6 cells/ml and dispensed by the unit of 100 μl in all the individual wells of a 96-well plate. […] Eight hours before completion of the incubation, [^3 H]thymidine was added to the contents of the wells in a fixed ratio of 2 μCi/10 μl/well. Eight hours after this addition, the cells in the wells were collected on filter papers with the aid of a cell harvester. The cells on the filter papers were dried, then combined with a toluene type scintillator, and counted for the radioactivity of the [^3 H] thymidine occluded in the cells by means of a scintillation counter.
The ratio of suppression of T cell proliferation was calculated in accordance with the following formula:
Rate of suppression=(Radioactivity in the absence of compound-Radioactivityafter addition of compound)/(Radioactivity in the absence of compound-Radioactivity in the absence of ConA)

Mouse Vas Deferens (MVD) = test: Agonist activity in Mouse Vas Deferens (MVD); conditions: read-out: MVD IC50
Description: as §2

[5] = MVD Antagonism to DPDPE, pA2, (20 nM)
[6] = MVD Antagonism to DPDPE, pA2, (50 nM)
[7] = Mus musculus, T-cell, ConA-stimulated mouse T cells, read-out: IC50, activity in inhibiting T cell hyperplasia (Table 3)
[8] = MVD Antagonism to DPDPE at 100 nM, pA2, at 100 nM
[9] = guinea pig brain homogenate, read-out: Bonding assay Ki value δ
[10] = Mus musculus, T-cell, 48 h, read-out: Ratio of suppression of T cell proliferation

T1 sequence (A0ACM8Q262 1-400): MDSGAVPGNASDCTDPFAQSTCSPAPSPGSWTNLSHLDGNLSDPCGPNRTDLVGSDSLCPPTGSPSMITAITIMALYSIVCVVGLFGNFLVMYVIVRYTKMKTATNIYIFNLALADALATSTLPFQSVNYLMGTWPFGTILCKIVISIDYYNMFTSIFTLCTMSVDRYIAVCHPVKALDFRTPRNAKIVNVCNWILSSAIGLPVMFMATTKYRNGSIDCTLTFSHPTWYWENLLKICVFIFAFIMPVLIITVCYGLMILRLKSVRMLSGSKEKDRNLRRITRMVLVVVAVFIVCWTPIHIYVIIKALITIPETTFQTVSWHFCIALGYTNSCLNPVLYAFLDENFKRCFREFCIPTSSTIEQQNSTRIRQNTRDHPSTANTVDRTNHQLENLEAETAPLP
T4 sequence (P32300 whole entry): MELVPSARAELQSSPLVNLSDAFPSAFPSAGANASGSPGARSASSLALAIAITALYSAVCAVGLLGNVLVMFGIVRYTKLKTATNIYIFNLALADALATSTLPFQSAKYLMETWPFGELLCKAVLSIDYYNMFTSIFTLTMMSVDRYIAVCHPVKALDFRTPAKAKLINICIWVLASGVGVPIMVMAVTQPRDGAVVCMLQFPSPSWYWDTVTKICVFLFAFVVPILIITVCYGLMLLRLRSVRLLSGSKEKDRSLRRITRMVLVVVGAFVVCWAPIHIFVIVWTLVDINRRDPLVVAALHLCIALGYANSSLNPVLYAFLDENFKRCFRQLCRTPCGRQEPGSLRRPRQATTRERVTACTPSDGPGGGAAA
T3 sequence (P41144 whole entry): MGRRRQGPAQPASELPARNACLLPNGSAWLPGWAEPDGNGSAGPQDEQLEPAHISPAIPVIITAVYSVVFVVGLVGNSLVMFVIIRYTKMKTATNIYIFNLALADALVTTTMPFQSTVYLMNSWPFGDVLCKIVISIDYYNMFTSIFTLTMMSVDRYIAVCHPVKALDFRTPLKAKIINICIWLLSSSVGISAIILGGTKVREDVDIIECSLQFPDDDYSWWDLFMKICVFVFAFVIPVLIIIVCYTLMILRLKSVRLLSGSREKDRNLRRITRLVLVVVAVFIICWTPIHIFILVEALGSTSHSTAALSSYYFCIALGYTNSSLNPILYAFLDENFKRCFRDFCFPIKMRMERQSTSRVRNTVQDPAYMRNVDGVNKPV
T2 sequence (A0A286XTF2 1-366): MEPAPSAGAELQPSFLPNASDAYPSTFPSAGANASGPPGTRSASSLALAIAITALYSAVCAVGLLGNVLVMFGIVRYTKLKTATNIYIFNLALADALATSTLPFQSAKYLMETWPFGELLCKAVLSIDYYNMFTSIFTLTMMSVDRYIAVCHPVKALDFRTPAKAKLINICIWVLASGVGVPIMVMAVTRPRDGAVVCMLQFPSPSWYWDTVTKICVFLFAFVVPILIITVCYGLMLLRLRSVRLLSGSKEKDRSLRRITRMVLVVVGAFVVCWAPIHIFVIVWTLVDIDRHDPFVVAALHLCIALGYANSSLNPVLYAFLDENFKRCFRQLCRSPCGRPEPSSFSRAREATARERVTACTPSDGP

SMILES	Ki (μ opioid receptor) [nM]	Ki ratio κ/μ (μ opioid receptor)	Ki (δ opioid receptor [1]) [nM]	Ki ratio μ/δ (δ opioid receptor [2])	Ki ratio μ/δ (δ opioid receptor [2]; selectivity ratio)	Ki (κ opioid receptor) [nM]	MVD Antagonism to DPDPE, DR (δ-receptor; (50 nM))	Kb (δ-receptor; [5]) [nM]	Kb (δ-receptor; [6]) [nM]	IC50 [3] [nM]	GPI naloxone DR [4]	GPI nor-BN1 DR [4]	GPI nor-BN1 Ke [4]	GPI nor-BN1 pA2 [4]	IC50 (mouse T cells; [7]) [µg/mL]	further results
Oc1cccc([C@]23CCN(CC4CC4)C[C@@H]2Cc2c([nH]c4c(F)cccc24)C3)c1 (relative stereo) [Compound 29, 2-Cyclopropylmethyl-4aα-(3-hydroxyphenyl)-7-fluoro-1,2,3,4,4a,5,11,11aβ-octahydro-6H-indolo[2,3-g]isoquinoline]	1180	0.31	1.91	194	618	370	34.1	3.89	1.51	6640	2.50	2.06	18.9	7.72	0.9	MVD Antagonism to DPDPE, DR (δ-receptor; (20 nM)): 6.22
Oc1cccc([C@]23CCN(CC4CC4)C[C@@H]2Cc2c([nH]c4ccc(F)cc24)C3)c1 (relative stereo) [Compound 37, 2-Cyclopropylmethyl-4aα-(3-hydroxyphenyl)-9-fluoro-1,2,3,4,4a,5,11,11aβ-octahydro-6H-indolo[2,3-g]isoquinoline]	1550	0.22	6.94	49.3	223	342	–	–	–	10500	1.19	1.26	–	–	1.9	Kb (δ-receptor; [8]): 6.31 nM; MVD Antagonism to DPDPE at 100 nM, DR (δ-receptor; at 100 nM): 8.93
CN1CC[C@]2(c3cccc(O)c3)Cc3[nH]c4ccccc4c3C[C@@]2(O)C1 (relative stereo) [Compound 54, 2-Methyl-4aα-(3-hydroxyphenyl)-11aβ-hydroxy-1,2,3,4,4a,5,11,11a-octahydro-6H-indolo[2,3-q]isoquinoline]	–	–	2.75	–	–	662	22.4	5.75	1.7	5960	1.30	3.30	8.70	8.06	–	IC50 (Mouse Vas Deferens (MVD)): 10200 nM
C=CCN1CC[C@]2(c3cccc(O)c3)Cc3[nH]c4ccccc4c3C[C@H]2C1 (relative stereo) [Compound 31, 2-Allyl-4aα-(3-hydroxyphenyl)-1,2,3,4,4a,5,11,11aβ-octahydro-6H-indolo[2,3-g]isoquinoline]	27000	0.09	2.97	754	> 9090	2240	–	–	–	20500	0.93	0.98	–	–	2.6	Kb (δ-receptor; [8]): 12.9 nM; MVD Antagonism to DPDPE at 100 nM, DR (δ-receptor; at 100 nM): 4.84
Oc1cccc([C@]23CCN(CC4CC4)C[C@@H]2Cc2c([nH]c4ccccc24)C3)c1 (single isomer, unassigned) [Compound 47, (+)-2-Cyclopropylmethyl-4aα-(3-hydroxyphenyl)-1,2,3,4,4a,5,11,11aβ-octahydro-6H-indolo[2,3-g]isoquinoline]	1170	–	0.37	–	–	388	30.5	5.75	1.7	64500	1.06	1.29	–	–	3.8	MVD Antagonism to DPDPE, DR (δ-receptor; (20 nM)): 4.44
CN1CC[C@]2(c3cccc(O)c3)Cc3[nH]c4ccc(Br)cc4c3C[C@H]2C1 (relative stereo) [Compound 10, 2-Methyl-4aα-(3-hydroxyphenyl)-9-bromo-1,2,3,4,4a,5,11,11aβ-octahydro-6H-indolo[2,3-g]isoquinoline]	–	–	–	–	–	–	–	–	–	14300	0.92	1.31	64.5	7.19	–	Ki (δ opioid receptor [1]; [9]): 1390 nM; IC50 (Mouse Vas Deferens (MVD)): 21900 nM
Oc1cccc([C@]23CCN(CC4CC4)C[C@@H]2Cc2c([nH]c4c(Cl)cccc24)C3)c1 (relative stereo) [Compound 40, 2-Cyclopropylmethyl-4aα-(3-hydroxyphenyl)-7-chloro-1,2,3,4,4a,5,11,11aβ-octahydro-6H-indolo[2,3-g]isoquinoline]	1650	0.57	8.31	113	199	936	18.5	10	2.88	11700	2.17	2.05	19.0	7.72	2.6	MVD Antagonism to DPDPE, DR (δ-receptor; (20 nM)): 3.02
Cn1c2c(c3ccccc31)C[C@H]1CN(CC3CC3)CC[C@]1(c1cccc(O)c1)C2 (relative stereo) [Compound 25, 2-Cyclopropylmethyl-4aα-(3-hydroxyphenyl)-1,2,3,4,4a,5,11,11aβ-octahydro-6-methyl-indolo[2,3-g]isoquinoline]	1530	0.09	2.77	52.0	552	144	–	–	–	14500	0.55	0.77	–	–	3	–
Oc1cccc([C@]23CCN(CC4CC4)C[C@]2(O)Cc2c([nH]c4ccccc24)C3)c1 (relative stereo) [Compound 56]	723	2.14	1.71	906	423	1550	–	–	–	–	–	–	–	–	14	–
Oc1cccc([C@]23CCN(CC4CC4)C[C@@H]2Cc2c([nH]c4ccccc24)C3)c1 (single isomer, unassigned) [Compound 52, (-)-2-Cyclopropylmethyl-4aα-(3-hydroxyphenyl)-1,2,3,4,4a,5,11,11aβ-octahydro-6H-indolo[2,3-g]isoquinoline]	81100	–	–	–	–	2280	–	–	–	16400	1.06	1.03	–	–	–	Ki (δ opioid receptor [1]; [9]): 135 nM; Kb (δ-receptor; at 100 nM): 158 nM; MVD Antagonism to DPDPE at 100 nM, Ke (δ-receptor; at 100 nM): 158; IC50, activity in inhibiting T cell hyperplasia (Table 3) (mouse T cells; ConA-stimulated mouse T cells): 3.5 µg/mL
Oc1ccc2c3c1O[C@H]1c4[nH]c5ccccc5c4C[C@@]4(O)[C@@H](C2)N(CC2CC2)CC[C@]314 [NTI, nartol indole, reference compound]	–	–	–	–	100	–	–	–	–	–	–	–	–	–	–	inhibition at 0.1 µg/mL (mouse T cells; [10]): 0%; inhibition at 0.5 µg/mL (mouse T cells; [10]): 0%; inhibition at 0.75 µg/mL (mouse T cells; [10]): 0%; inhibition at 1 µg/mL (mouse T cells; [10]): 0%; inhibition at 2.5 µg/mL (mouse T cells; [10]): 0%; inhibition at 5 µg/mL (mouse T cells; [10]): 15%; inhibition at 7.5 µg/mL (mouse T cells; [10]): 35%; inhibition at 10 µg/mL (mouse T cells; [10]): 62%; inhibition at 12.5 µg/mL (mouse T cells; [10]): 85%; inhibition at 15 µg/mL (mouse T cells; [10]): 98%; inhibition at 17.5 µg/mL (mouse T cells; [10]): 100%; inhibition at 20 µg/mL (mouse T cells; [10]): 100%; IC50 (mouse T cells; Mus musculus, T-cell, read-out: IC50 value, immunosuppression (text to Table 2)): 8.6 µg/mL

From patent US5539119A, “Indole derivatives” (priority 1990, dated 1996)
